Data from the supplement of paper PMC11451515.

System: NOMO1
Experiment: cell viability relative to DMSO control; higher = less cytotoxic
Settings: 48 h
In short: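 Three leukemia lines were tested: NOMO1 and SEM at 500 cells/well and P12-Ichikawa at 1000 cells/well. Each was adapted for at least four passages in each medium and seeded in 5 μl in 1536-well plates, and library compounds in DMSO were pin-dosed from 47 μM to 0.79 nM in 11 threefold steps. After 48 h at 37°C, CellTiter-Glo One luminescence was read. Viability is a percentage relative to DMSO wells on each plate, with cell-free wells as background.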

[1] = RPMI 5 mM glucose + 10% dialyzed FBS, 0.000781 µM
[2] = RPMI 5 mM glucose + 10% dialyzed FBS, 0.00234 µM
[3] = RPMI 5 mM glucose + 10% dialyzed FBS, 0.00702 µM
[4] = RPMI 5 mM glucose + 10% dialyzed FBS, 0.0211 µM
[5] = RPMI 5 mM glucose + 10% dialyzed FBS, 0.0632 µM
[6] = RPMI 5 mM glucose + 10% dialyzed FBS, 0.19 µM
[7] = RPMI 5 mM glucose + 10% dialyzed FBS, 0.569 µM
[8] = RPMI 5 mM glucose + 10% dialyzed FBS, 1.71 µM
[9] = RPMI 5 mM glucose + 10% dialyzed FBS, 5.12 µM
[10] = RPMI 5 mM glucose + 10% dialyzed FBS, 15.4 µM
[11] = RPMI 5 mM glucose + 10% dialyzed FBS, 46.1 µM
[12] = HPLM + 10% dialyzed FBS, 0.000781 µM
[13] = HPLM + 10% dialyzed FBS, 0.00234 µM
[14] = HPLM + 10% dialyzed FBS, 0.00702 µM
[15] = HPLM + 10% dialyzed FBS, 0.0211 µM
[16] = HPLM + 10% dialyzed FBS, 0.0632 µM
[17] = HPLM + 10% dialyzed FBS, 0.19 µM
[18] = HPLM + 10% dialyzed FBS, 0.569 µM
[19] = HPLM + 10% dialyzed FBS, 1.71 µM
[20] = HPLM + 10% dialyzed FBS, 5.12 µM
[21] = HPLM + 10% dialyzed FBS, 15.4 µM
[22] = HPLM + 10% dialyzed FBS, 46.1 µM
[23] = RPMI 5 mM glucose + 10% FBS, 0.000781 µM
[24] = RPMI 5 mM glucose + 10% FBS, 0.00234 µM
[25] = RPMI 5 mM glucose + 10% FBS, 0.00702 µM
[26] = RPMI 5 mM glucose + 10% FBS, 0.0211 µM
[27] = RPMI 5 mM glucose + 10% FBS, 0.0632 µM
[28] = RPMI 5 mM glucose + 10% FBS, 0.19 µM
[29] = RPMI 5 mM glucose + 10% FBS, 0.569 µM
[30] = RPMI 5 mM glucose + 10% FBS, 1.71 µM
[31] = RPMI 5 mM glucose + 10% FBS, 5.12 µM
[32] = RPMI 5 mM glucose + 10% FBS, 15.4 µM
[33] = RPMI 5 mM glucose + 10% FBS, 46.1 µM

Row | SMILES | cell viability [1] | cell viability [2] | cell viability [3] | cell viability [4] | cell viability [5] | cell viability [6] | cell viability [7] | cell viability [8] | cell viability [9] | cell viability [10] | cell viability [11] | cell viability [12] | cell viability [13] | cell viability [14] | cell viability [15] | cell viability [16] | cell viability [17] | cell viability [18] | cell viability [19] | cell viability [20] | cell viability [21] | cell viability [22] | cell viability [23] | cell viability [24] | cell viability [25] | cell viability [26] | cell viability [27] | cell viability [28] | cell viability [29] | cell viability [30] | cell viability [31] | cell viability [32] | cell viability [33]
1 | Cc1c(C(=O)NN2CCCCC2)nn(-c2ccc(Cl)cc2Cl)c1-c1ccc(Cl)cc1 | 122% | 120% | 125% | 143% | 128% | 138% | 76.3% | 46.8% | 32.8% | 28.1% | 36% | – | – | – | – | – | – | – | – | – | – | – | – | – | – | – | – | – | – | – | – | – | –
2 | COc1cc2ncnc(Nc3ccc(F)c(Cl)c3)c2cc1NC(=O)/C=C/CN1CCCCC1 | 95.7% | 97.7% | 93.6% | 85.4% | 91.3% | 96.6% | 85.1% | 95.2% | 78.3% | 65.6% | 72.9% | 92.2% | 105% | 114% | 102% | 108% | 118% | 81.9% | 81.8% | 72.1% | 65.6% | 41.5% | 86.4% | 93.7% | 91.1% | 86.3% | 98.4% | 84.9% | 89.6% | 88.4% | 89.1% | 91.7% | 75.5%
3 | FC(F)c1nc2ccccc2n1-c1nc(N2CCOCC2)nc(N2CCOCC2)n1 | 86.5% | 102% | 97.1% | 97.5% | 76.5% | 71% | 54.7% | 52.9% | 50.2% | 43.9% | 34.4% | 104% | 93.8% | 92% | 60.1% | 65.3% | 42.6% | 43.9% | 36.3% | 41.5% | 27.7% | 30.6% | 85.4% | 92.2% | 87.9% | 94.5% | 78% | 67.8% | 52.6% | 62.8% | 45.7% | 60.2% | 31.2%
4 | CN(C)[C@H]\1[C@@H]2C[C@H]3C(=C(O)\[C@]2(O)C(=O)\C(=C1O)C(N)=O)/C(=O)C4=C(O)C=CC=C4[C@@]3(C)O | 104% | 116% | 112% | 115% | 112% | 102% | 110% | 95% | 110% | 101% | 93.4% | 104% | 111% | 104% | 109% | 111% | 106% | 120% | 95.1% | 121% | 97.1% | 99.6% | 117% | 124% | 118% | 125% | 108% | 102% | 119% | 110% | 102% | 104% | 106%
5 | CCn1c(-c2nonc2N)nc2cnc(Oc3cccc(NC(=O)c4ccc(OCCN5CCOCC5)cc4)c3)cc21 | 88.9% | 107% | 110% | 102% | 115% | 103% | 89.9% | 87.6% | 79.1% | 71.2% | 74.4% | 90.6% | 123% | 105% | 117% | 117% | 104% | 115% | 110% | 94.6% | 95.3% | 83.2% | 92.8% | 98.6% | 111% | 109% | 110% | 95.8% | 87.4% | 93.8% | 82.4% | 74.1% | 64%
6 | Cc1cc(C(C)(C)C)c(O)c(C)c1CC1=NCCN1 | 78% | 85.6% | 91.8% | 97.4% | 100% | 100% | 97% | 93.2% | 101% | 61.2% | 54.1% | 90.1% | 99.5% | 103% | 103% | 101% | 108% | 105% | 107% | 83.8% | 55% | 43.4% | 91.6% | 97.3% | 99.1% | 90% | 86.2% | 105% | 90.8% | 97.8% | 88.9% | 56.4% | 43.2%
7 | N#Cc1c(NC(=O)c2cccc3ccccc23)sc2c1CCCC2 | – | – | – | – | – | – | – | – | – | – | – | – | – | – | – | – | – | – | – | – | – | – | 120% | 142% | 118% | 128% | 139% | 134% | 127% | 25.4% | 26.1% | 21.7% | 21%
8 | C[S+]([O-])(=O)C1=CC=C(C=C1)C/2=C(/C(=O)OC2)C3=CC=CC=C3 | 107% | 118% | 106% | 111% | 121% | 118% | 123% | 120% | 108% | 131% | 129% | – | – | – | – | – | – | – | – | – | – | – | 106% | 110% | 118% | 109% | 120% | 115% | 118% | 119% | 114% | 108% | 123%
